Reference: patent US20070004763A1, “AMINOQUINOLINE AND AMINOQUINAZOLINE KINASE MODULATORS” (priority 2005, published 2007)

What follows are compounds tested against T1, TrkB (Homo sapiens, UniProt Q16620) (assay: Trk B Fluorescence Polarization Kinase Assay). Settings: 150 uM ATP, 50 nM TrkB; uncertainty ±10%.
T1 construct: purchased Upstate 14-507M
Type: biochemical
Experimental: The compounds of the present invention are also specific inhibitors of TrkB. Selection of preferred compounds of Formula I for use as TrkB inhibitors was performed in the following manner. The TrkB assay utilized the fluorescein-labeled phosphopeptide and the anti-phosphotyrosine antibody included in the Panvera Phospho-Tyrosine Kinase Kit (Green) supplied by Invitrogen. When TrkB phosphorylated poly Glu4Tyr, the fluorescein-labeled phosphopeptide was displaced from the anti-phosphotyrosine antibody by the phosphorylated poly Glu4Tyr, thus decreasing the FP value. The TrkB kinase reaction was incubated at room temperature for 30 minutes under the following conditions: 50 nM TrkB (Upstate, catalog #14-507M), 20 ug/mL poly Glu4Tyr, 150 uM ATP, 5 mM MgCl2, 1% compound in DMSO. The kinase reaction was stopped with the addition of EDTA. The fluorescein-labeled phosphopeptide and the anti-phosphotyrosine antibody were added and incubated for 30 minutes at room temperature. Data points were an average of triplicate samples. Inhibition and IC50 data analysis were done with GraphPad Prism using a non-linear regression fit with a multiparamater, sigmoidal dose-response (variable slope) equation.

T1 sequence (Q16620 526-822 limits assumed): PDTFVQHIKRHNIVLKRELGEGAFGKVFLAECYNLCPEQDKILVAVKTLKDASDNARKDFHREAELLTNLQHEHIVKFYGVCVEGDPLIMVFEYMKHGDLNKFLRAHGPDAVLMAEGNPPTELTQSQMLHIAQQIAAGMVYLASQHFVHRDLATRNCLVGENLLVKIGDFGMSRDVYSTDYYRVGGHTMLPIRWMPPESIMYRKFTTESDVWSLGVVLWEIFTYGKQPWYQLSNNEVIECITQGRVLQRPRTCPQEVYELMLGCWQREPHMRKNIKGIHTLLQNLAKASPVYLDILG

Structure (SMILES)	IC50 [µM]
COc1cc2ncnc(N3CCC(OC(=O)Nc4ccc(C(C)C)cc4)CC3)c2cc1OC [Compound 1, (4-Isopropyl-phenyl)-carbamic acid 1-(6,7-dimethoxy-quinazolin-4-yl)-piperidin-4-yl ester]	5.72
COc1cc2ncnc(N3CCC(OC(=O)Nc4ccc(C(C)C)cc4)C3)c2cc1OC (centres unmarked) [Compound 2, (4-Isopropyl-phenyl)-carbamic acid 1-(6,7-dimethoxy-quinazolin-4-yl)-pyrrolidin-3-yl ester]	3.7
COc1cc2ncnc(N3CCC(OC(=O)Nc4ccc(OC(C)C)cc4)CC3)c2cc1OC [Compound 3, (4-Isopropoxy-phenyl)-carbamic acid 1-(6,7-dimethoxy-quinazolin-4-yl)-piperidin-4-yl ester]	5.8
COc1cc2ncnc(N3CCCC(COC(=O)Nc4ccc(C(C)C)cc4)C3)c2cc1OC (centres unmarked) [Compound 4]	8.4
COc1cc2ncnc(N3CCC(NC(=O)Nc4ccc(OC(C)C)cc4)C3)c2cc1OC (centres unmarked) [Compound 8, 1-[1-(6,7-Dimethoxy-quinazolin-4-yl)-pyrrolidin-3-yl]-3-(4-isopropoxy-phenyl)-urea]	3.65
CC(C)c1ccc(NC(=O)OC2CCN(c3ccnc4ccccc34)CC2)cc1 [Compound 10]	6.5
COc1cc2ncnc(N3CCC(OC(=O)Nc4ccc(OC5CCC5)nc4)CC3)c2cc1OC [Compound 11, (6-Cyclobutoxy-pyridin-3-yl)-carbamic acid 1-(6,7-dimethoxy-quinazolin-4-yl)-piperidin-4-yl ester]	8.6
COc1cc2ncnc(N3CCC(OC(=O)Nc4ccc(OC5CCC5)nc4)C3)c2cc1OC (centres unmarked) [Compound 12, (6-Cyclobutoxy-pyridin-3-yl)-carbamic acid 1-(6,7-dimethoxy-quinazolin-4-yl)-pyrrolidin-3-yl ester]	21.7
COc1cc2ncnc(N3CCC(OC(=O)Nc4ccc(OC(C)C)cc4)C3)c2cc1OC (centres unmarked) [Compound 15, (4-Isopropoxy-phenyl)-carbamic acid 1-(6,7-dimethoxy-quinazolin-4-yl)-pyrrolidin-3-yl ester]	12.5

Further lines, results first:

IC50 [µM]	Structure (SMILES)
2.4	COc1cc2ncnc(N3CCC(CC(=O)Nc4ccc(C(C)C)cc4)CC3)c2cc1OC [Compound 5, 2-[1-(6,7-Dimethoxy-quinazolin-4-yl)-piperidin-4-yl]-N-(4-isopropyl-phenyl)-acetamide]
0.1	COc1cc2ncnc(N3CCC(CC(=O)Nc4ccc(C(C)C)cc4)C3)c2cc1OC (centres unmarked) [Compound 6, 2-[11-(6,7-Dimethoxy-quinazolin-4-yl)-pyrrolidin-3-yl]-N-(4-isopropyl-phenyl)-acetamide]
0.2	COc1cc2ncnc(N3CCCC3COC(=O)Nc3ccc(C(C)C)cc3)c2cc1OC (centres unmarked) [Compound 9]
0.16	COc1cc2ncnc(N3CCC(C(=O)Nc4ccc(C(C)C)cc4)CC3)c2cc1OC [Compound 13, 1-(6,7-Dimethoxy-quinazolin-4-yl)-piperidine-4-carboxylic acid (4-isopropyl-phenyl)-amide]
0.4	CC(C)c1ccc(NC(=O)OC2CCN(c3ncnc4ccc(C#CCO)cc34)C2)cc1 (centres unmarked) [Compound 14, (4-Isopropyl-phenyl)-carbamic acid 1-[6-(3-hydroxy-prop-1-ynyl)-quinazolin-4-yl]-pyrrolidin-3-yl ester]
2.4	CC(C)c1ccc(NC(=O)NC2CCN(c3ncnc4ccccc34)C2)cc1 (centres unmarked) [Compound 16, 1-(4-Isopropyl-phenyl)-3-(1-quinazolin-4-yl-pyrrolidin-3-yl) urea]
3.6	CCN(CC)CC#Cc1ccc2ncnc(N3CCC(OC(=O)Nc4ccc(C(C)C)cc4)C3)c2c1 (centres unmarked) [Compound 17, (4-Isopropyl-phenyl)-3-carbamic acid 1-[6-(3-diethylamino-prop-1-ynyl)-quinazolin-4-yl]-pyrrolidin-3-yl ester]
0.5	COc1cc2ncnc(N3CCC(CNC(=O)Nc4ccc(C(C)C)cc4)CC3)c2cc1OC [Compound 18, 1-[1-(6,7-Dimethoxy-quinazolin-4-yl)-piperidin-4-ylmethyl]-3-(4-isopropyl-phenyl)-urea]
